Experimental data as given in US20170233628A1, “ENZYME DES[…] DES[…] PRODUCING SULFUR CONTAINING COMPOUNDS IN DOWNHOLE FLUIDS” (BAKER HUGHES INCORPORATED, priority 2016, published 2017).

Tested on: sulfur producing enzymes
Assay: H2S production (colour of sample) by sterile, enzyme-containing SRB supernatant after treatment with inhibitors
Format: biochemical, sulfate-reducing bacteria (SRBs) from produced water sources
Details: sterile enzyme-containing supernatant in LB, 3 months at 37° C.
Procedure: Now turning to the Figures, FIG. 1 illustrates the ability of sterile solutions to produce hydrogen sulfide (H2S). Six samples were formed with the following procedure. Each sample includes 100 mL of lysogeny broth (LB) ([…] Tryptone, 5 mg/ml yeast extract, 5 mg/mL NaCl, pH 7.5). Sample A is the blank sample, i.e. no sulfur metabolizing enzymes were added. Samples B-D include 0.5 mL of cultured sulfate-reducing bacteria (SRBs) from produced water sources. […]
Sample E includes 0.5 mL of supernatant after the same cultured SRBs were additionally sonicated. A QSonic sonicator sonicated the cultured SRBs for one minute cycles at 70% amplitude. The cell debris was removed via centrifugation at 3000 RPM for 25 minutes. 0.5 mL of the remaining supernatant was added to Sample E.
The remaining supernatant was filtered through a […] pore size PVDF membrane. […]
Samples 1-9 included the same components as that of Sample F from Example 1, i.e. 0.5 mL of the sterile, enzyme-containing, supernatant. […] Samples 1-9 were incubated at 37° C. and monitored periodically. […]

Structure (SMILES) | inactivation of sulfur producing enzymes
CCCCCCCCCCCCOS(=O)(=O)[O-].[Na+] [SDS, sodium dodecyl sulfate] | effective in permanently inactivating enzymes
NC(=O)CI [Iodoacetamide, iodoacetamide] | effective in permanently inactivating enzymes
